Data from a melting point compilation (Tetko et al.; mined from patent text by program, amines drawn as free bases though some values may be those of a salt).

Compound | melting point [°C]
COc1ccc(Cc2cc3cccc(-c4cccc(C(=O)NCCN5CCCC5)c4)c3o2)cc1OC | 119 to 120
COC1C2=C3C(=CN1OC)OCCC3CC(CCC#N)C2 (configuration not stated) | 105 to 107
CC(CC(=O)c1cccc(C(F)(F)F)c1)C(=O)O (configuration not stated) | 90 to 91
CC(C)C(=S)Nc1ccc([N+](=O)[O-])c(C(F)(F)F)c1 | 74 to 76
O=C1O[C@@H](CNC(=S)C(F)F)CN1c1ccc(N2CCS(=O)(=O)CC2)c(F)c1 | 146 to 147
c1cn(CCc2nc(-c3ccc4c(c3)OCO4)c3cc4c(cc3n2)OCO4)cn1 | 160 to 163
CCOC(=O)c1cn(CCO)c2nc(N3CCN(C(=O)OCC)CC3)c(F)cc2c1=O | 215 to 217
CN(C)CCCC1(C#N)c2ccccc2COc2ccccc21 (configuration not stated) | 112 to 114
CS(=O)Cc1ccc2oc([N+](=O)[O-])c(-c3ccccc3)c2c1 (configuration not stated) | 162 to 165
COc1ccc(CCNC(=O)Cc2ccc(-c3ccccc3)cc2)cc1OC | 103 to 105
O=C1CCC(c2ccccc2)(c2ccccc2)[C@@H]2CN(C(=O)Cc3ccccc3O)C[C@H]12 (racemic) | 232
O=C1CCC(=O)N1c1cccc2ccccc12 | 154
Cc1ncn(-c2ccc(C(=O)N3Cc4cccn4Cc4ccccc43)c(Cl)c2)n1 | 191 to 193
CCOC(=O)c1nn(-c2ccc(N=[N+]=[N-])cc2)c(=O)c2c(N)scc12 | 169 to 170
COCCOCOc1ccc2cc(C(=O)O)ccc2c1 | 110
O=C(O)/C=C/C=C(c1ccc(Cl)cc1)c1ccc(Cl)cc1 | 213 to 215
Clc1ccc2c3c(cccc13)C(NCCCn1ccnc1)=N2 | 177 to 178
Nc1ccc(C(=O)N2Cc3ccccc3CC3=C2C=CC(Cl)C3)cc1 (configuration not stated) | 211 to 214
CCOC(=O)c1c(NC(=O)C(F)(F)F)c2cccnc2n(CC)c1=O | 195 to 197
C[C@@H](c1nc(-c2ccc(C#N)cc2)cs1)[C@](O)(Cn1cncn1)c1ccc(F)cc1F | 164 to 166
O=C(Nc1nc(-c2ccco2)c(C(=O)c2ccn(Cc3ccccc3)c(=O)c2)s1)c1ccncc1 | 288 to 291
CC(=O)NC1C(OCc2ccccc2)OC(COCc2ccccc2)C(OCc2ccccc2)C1OCC(O)CO (configuration not stated) | 165 to 166

Compound | melting point [°C]
Nc1ncnc2c1c(-c1cc(O)cc(F)c1)nn2Cc1oc2ccccc2c(=O)c1-c1ccccc1 | 260 to 262
Cc1ccc(N2CSC(=NCC(F)(F)F)N(Cc3ccc(C(F)(F)F)cc3)C2=O)cc1 | 62 to 63
Cc1cccc(Nc2cc(Cl)nc(SCC(=O)NN3CCOCC3)n2)c1C | 106 to 108
O=C(O)CCCc1cc2nc(Cl)ccc2n1S(=O)(=O)c1ccc2c(c1)OCCO2 | 166
CCOC=NN=C(c1ccc(Cl)cc1)c1ccc(OS(C)(=O)=O)cc1 | 104 to 107
O=C(Oc1ccc2c(OC(=O)c3ccc(O)c(O)c3)c3cc(OC(=O)c4ccc(O)c(O)c4)ccc3cc2c1)c1ccc(O)c(O)c1 | 233
C#CCOc1ccc2c(C)cc(=O)oc2c1C(=O)C=Cc1cccc(OC)c1 | 154 to 156
COC(=O)c1ccc(C(=O)Nc2ccccc2OC)cc1 | 119 to 121
Nc1ccc(C23CC(C2)C(=O)N(CC2CCCCC2)C3=O)cc1 | 140 to 146
Cc1sc2c(c1C)CNC(Cl)=N2 | 170 to 172
CCOC(=O)C(=O)Nc1ccc2c(=O)n3c(nc2c1)C(=Cc1ccc(OC)cc1OC)CC3 | 285 to 288
CC(=O)C(=Cc1ccc(S(=O)(=O)c2ccccc2)cc1)C(C)=O | 102 to 105
O=S1(=O)c2ccccc2N(c2ccccc2)c2ccccc21 | 212 to 217
Cc1cc2c(cc1-c1cccc(C#CC(=O)O)c1)C(C)(C)CCC2(C)C | 180 to 181
O=C(NC(Cc1ccc(OCc2ccccc2)cc1)C(=O)O)c1cc2ccc(-c3ccc(Cl)cc3)cc2s1 (configuration not stated) | 237 to 239
NC(=S)c1nccc(F)c1Cn1ccnc1 | 154 to 156
CC(=O)SCC(CSC(C)=O)C(=O)N1c2ccccc2CCC1C(=O)O (configuration not stated) | 149 to 151
O=S(=O)(NCc1ccnc2ccccc12)c1ccc(-c2cc(Cl)ccc2Cl)cc1 | 124
CC(=O)OCc1cc(Cl)ccc1Sc1ccccc1CN(C)C | 41 to 44
CCCc1cccnc1N | 25 to 27
COc1ccc(C(=O)CBr)c(F)c1 | 67 to 69
COC(=O)C1=C(C)Nc2ncnn2C1c1cccs1 (configuration not stated) | 239 to 240

Compound | melting point [°C]
Cn1nnc(-c2ccc3c(c2)c(C2CCN(CCN4CCNC4=O)CC2)cn3-c2ccncc2)n1 | 204 to 206
O=C1NN=C(c2ccc3[nH]c(-c4ccncc4)cc3c2)CO1 | 322 to 325
O=C(C=Cc1ccc(O)c(OC(F)(F)F)c1)C(CCOCCO)C(=O)C=Cc1ccc(O)c(OC(F)(F)F)c1 (configuration not stated) | 112 to 114
CCOC(=O)c1cn(CC)c2cc(-c3cc(C)nc(C)c3)c(F)cc2c1=O | 221 to 224
C=CCC1CC(=O)N1C(C(=O)OCOC(=O)C(C)(C)C)=P(c1ccccc1)(c1ccccc1)c1ccccc1 (configuration not stated) | 140 to 142
CCNc1ncc2ccc(=O)n(C)c2n1 | 194 to 195
NCCc1cccc(N2C(=O)N(c3cc(Cl)ccc3Cl)Cc3cnc(Nc4ccccc4)nc32)c1 | 120 to 123
CC(C)(C)OC(=O)Nc1ccc(-c2cccc3ccccc23)cc1[N+](=O)[O-] | 60 to 66
CCOC(=O)C(C)NC(=O)N1CCc2cc(S(=O)(=O)N3CCN(c4cccc(Cl)c4)CC3)ccc21 (configuration not stated) | 167 to 168
CN(CCn1ncc(-c2ccccc2)cc1=O)CC(O)c1ccc(NS(C)(=O)=O)cc1 (configuration not stated) | 108
CCn1cnc(N2CCc3ccccc3CC2)c(C#N)c1=O | 138 to 140
CC(=O)OCC(=O)Nc1ccc(-c2nc(C(=O)Nc3nccs3)c(-c3ccc(C)cc3)[nH]2)cc1 | > 250
O=C(CCc1ccccc1)N[C@H]1COC1=O | 104 to 106
CC(C)(C)c1ccc(/C=C/C(=O)Nc2ccc3c(c2)NCCC3)cc1 | 225 to 227
CN1CCC(C(O)(c2ccn(C)c2)c2ncc[nH]2)CC1 (configuration not stated) | 171
O=C(NCC1CN(c2ccc(N3CCOCC3=O)cc2)C(=O)O1)c1ccc(Cl)s1 (configuration not stated) | 227
CC1=C(C(=O)OC(C)(C)C)C(c2ccccc2F)C(C(=O)OC(C)(C)C)=C(C)N1 | 201 to 202
CNC(=O)CN(C)Cc1ccc(CCn2cnc3cc(-c4ccc(Cl)cc4)sc3c2=O)cc1 | 146 to 149
Cc1ccc(CN2CCC(OC(=O)c3ccc(C)cc3)CC2)cc1 | 66 to 77
CCOC(=O)/C=C(C)/C=C/C(Br)=C(/C)c1ccc2c(c1)C(C)(C)CCC2(C)C | 97 to 98.5
O=[N+]([O-])c1cnccc1NCc1c(F)cccc1F | 148 to 149

Next, values leading:

melting point [°C] | Compound
117 to 118 | CCc1nc(-c2cccc(C)c2)c(-c2ccnc(NC3CCCC3)c2)s1
104 to 105 | O=C1CCCc2ccc([N+](=O)[O-])cc21
89 to 90 | CC(C)(C)[C@H]1CC[C@@H](Nc2ncnc(I)c2Cl)CC1
148 to 150 | O=C1Cc2cc(Oc3ccccc3)ccc2N1
96.7 | CN1CCC(OC(c2ccccc2)c2nc3cccc(N)c3[nH]2)CC1 (configuration not stated)
109 to 114 | CCOC(=O)CSc1nc(Cl)cc(Nc2ccccc2)n1
62 to 64 | COC(=O)NC(=NS(=O)(=O)NC(C)C)OC(C)C
68 to 70 | COc1ccc(C(=O)N2CCc3sccc3C2c2ccc(OC(F)(F)F)cc2)cc1 (configuration not stated)
110 to 113 | CCCCc1nc(Cl)c(CC#N)n1Cc1ccc(C#N)cc1
199 to 200 | NC(=S)NC[C@H]1CN(c2ccc(N3CCOCC3)c(F)c2)C(=O)O1
129 to 132 | O=S1(=O)NCCc2ccc(Oc3ccccc3)cc21
180 to 182 | Cc1cc2c(cc1C1=NNC(=O)CC1C)N(C)C(=O)CO2 (configuration not stated)
101 to 102 | COc1ccc(-c2ocnc2-c2cc(OC)c(O)c(OC)c2)cc1N
99.5 to 101 | COc1cc(C(=O)c2ccnn2C)c(Cl)c(Cl)c1OC
174 to 175 | CCCC[C@]1(CC)CS(=O)(=O)c2cc(OC)c(OC)cc2[C@@H](c2ccccc2)N1O
270 | O=C(O)COc1ccc2c(=O)c3ccc(Cl)cc3oc2c1Cl

melting point [°C] | Compound
81 to 83 | CCOP(=O)(Cc1cc2c(cc1CP(=O)(OCC)OCC)C(CC)(CC)N(Cc1ccccc1)C2(CC)CC)OCC
235 to 236 | O=C(Nc1cccnc1)c1ccc(OC(F)F)c2oc3ccc(C(F)(F)F)cc3c12
193 to 195 | Cc1cc(C(=O)NC2=NC(C)(C)CC2(c2ccccc2)c2ccccc2)[nH]n1
258 to 260 | Cc1[nH]c(C(=O)N2CCC(C(=O)NCCN(C)C)CC2)c(C)c1-c1nc2ccc(C(=O)c3ccccc3)cc2[nH]1
> 260 | Cc1cccc(NC(=O)NCc2cccc3c2C(=O)N(C2CCC(=O)NC2=O)C3=O)c1 (configuration not stated)
132 to 133 | CCc1nc2c(n1C(CC)CC)C(=O)N(C)CN2c1ccc(Cl)cc1Cl
336 to 338 | O=c1[nH]nc2ccc(-c3ccc(Cl)c(Cl)c3)nn12
60 | CCOC(=O)C1COc2cc(C(C)=O)ccc2O1 (configuration not stated)
187 to 190 | Cc1ccccc1C(=O)N(C)c1ccc(C(=O)O)cc1
161 to 162 | Cc1nn(-c2ccccn2)cc1COc1ccc(CC(=O)O)cc1
107 to 108 | CNC(=O)C(=O)CCCCCCSc1nc(-c2ccccc2)cs1
106 to 111 | CCNC(=O)c1cc([Si](C)(C)C)sc1[Si](C)(C)C
118 to 119 | Cc1oc(-c2ccccc2)nc1COc1cccc(/C=C/CO)c1
280 to 282 | c1ccc(-c2ncc(-c3nnc(-c4ccccc4)[nH]3)cn2)cc1
64 to 66 | CC(C)c1nc(CN(C)C(=O)N[C@H](C(=O)N[C@@H](Cc2ccccc2)C[C@H](O)[C@H](Cc2ccccc2)NC(=O)OCc2cnc(C(C)C)s2)C(C)C)cs1
154 to 156 | FC1CN(C(c2ccccc2)c2ccccc2)C1
